Source: patent US6541463B1, “Inhibitors of type 5 and type 3 17β-hydroxysteroid dehydrogenase and methods for their use” (Endorecherche, Inc., priority 1998, dated 2003)

What was measured:
[1] = molecular target: T1, human type 3 17β-hydroxysteroid dehydrogenase (Homo sapiens, UniProt P37058); assay: Enzymatic assay for type 3 17β-HSD; type: biochemical; conditions: for IC50: Table 4′, read-out: Inhibition Type 3 17β-HSD Activity IC50
T1 construct: expressed in transfected cells; host or cells: 293 cells, transient transfection; microsomal fraction (100 000×g pellet)
T1 sequence (P37058 1-310): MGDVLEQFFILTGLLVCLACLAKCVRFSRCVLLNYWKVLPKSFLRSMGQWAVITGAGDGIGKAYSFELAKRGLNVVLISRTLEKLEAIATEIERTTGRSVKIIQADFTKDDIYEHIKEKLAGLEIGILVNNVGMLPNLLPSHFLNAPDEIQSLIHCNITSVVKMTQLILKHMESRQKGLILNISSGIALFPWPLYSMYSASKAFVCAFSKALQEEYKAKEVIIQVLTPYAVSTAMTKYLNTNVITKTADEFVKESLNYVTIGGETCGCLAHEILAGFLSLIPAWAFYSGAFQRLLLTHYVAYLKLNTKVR
Excerpt: Enzymatic assay for types 1, 2, and 3 17β-HSD and types 1 and 3 3α-HSD”. Lower numbers of IC50 are desirable. Blank means that a determination was not done. The % of inhibition at the concentration of 3.10^−6M determined in preliminary screening test is reported in square braquets.
(§1) Enzyme sources. 293 cells transiently transfected with expression vectors encoding types 1, 2 and 3 17β-HSD (Luu-The et al., J. Steroid Biochem. Molec. Biol., 55: 581-587, 1995), types 1 and 2 5α-reductase (Luu-The et al., J. Invest. Dermatol., 102: 221-226, 1994) and types 1 and 3 3α-HSD (Dufort et al. Biochem. Biophys. Res. Commun. 228: 474-479, 1996), using the calcium phosphate procedure (Kingston et al., In: Current Protocols in Molecular Biology. Edited by E. M. Ausbel, R. Brent, R. E. Kingston, D. D. Moore, J. G. Seidman, J. A. Smith, K. Struhl. John Wiley & Sons, New York, pp. 9.1.1-9.1.9, 1991; Luu-The et al., J. Invest. Dermatol., 102: 221-226, 1994). For assays using cell subfractions, cells were sonicated in 50 mM sodium phosphate buffer (pH 7.4), containing 20% glycerol and 1 mM EDTA and centrifuged at 10 000×g for 30 min before centrifugation for 100 000×g for 1 h to separate the mitochondrial and microsomal fractions, respectively. The cytosol fractions (100 000×g supernatant) was used to determine type 1 activity while the microsomal fraction (pellet at 100 000×g) was used for measurement of types 2 and 3 17β-HSD activities.
(§2) Incubation. The enzymatic reaction was carried out at 37° C. in 1 ml of 50 mM sodium phosphate buffer, pH 7.4, containing 20% glycerol, 1 mM EDTA, and 2 mM cofactors (NADPH or AND^+) for 1 h in the presence of 0.1 μM ^14C-labeled substrate: estrone and 4-dione for types 1 and […] 17β-HSD, respectively, testosterone for type 2 17β-HSD as well as types 1 and 2 5α-reductases, DHT for types 1 and 3 3α-HSD activities, and the indicated concentration of inhibitor.
(§3) Extraction of metabolites, migration on TLC and quantification were as described above for the assay of type 5 17β-HSD.

[2] = molecular target: T2, human type 1 3α-hydroxysteroid dehydrogenase (Homo sapiens, UniProt P17516); assay: Enzymatic assay for type 1 3α-HSD; type: biochemical; conditions: Table 4′; for IC50: read-out: Inhibition Type 1 3α-HSD Activity IC50
T2 sequence (P17516 1-323): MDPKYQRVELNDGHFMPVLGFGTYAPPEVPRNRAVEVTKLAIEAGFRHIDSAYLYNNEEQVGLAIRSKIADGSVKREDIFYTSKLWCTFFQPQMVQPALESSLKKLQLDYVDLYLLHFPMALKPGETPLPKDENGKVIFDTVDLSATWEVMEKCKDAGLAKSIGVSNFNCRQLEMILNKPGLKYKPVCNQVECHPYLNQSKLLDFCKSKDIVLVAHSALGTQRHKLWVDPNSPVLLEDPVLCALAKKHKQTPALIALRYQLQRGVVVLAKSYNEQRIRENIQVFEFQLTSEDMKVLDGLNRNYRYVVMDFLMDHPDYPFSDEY
Experimental: The manner in which IC50 was determined is described in “Efficacy of Preferred Inhibitors: VI. Enzymatic assay for types 1, 2, and 3 17β-HSD and types 1 and 3 3α-HSD”. […] numbers of IC50 are desirable. Blank means that a determination was not done. […]
as §1, §2, §3

Row | Structure (SMILES) | inhibition at 3 µM ([1]; 3 · 10^−6 M, value in square brackets, read-out: Inhibition Type 3 17B-HSD Activity [% Inh. at 3 · 10^−6 M]) [%] | IC50 [1] [µM] | IC50 [2] [µM] | Inhibition Type 1 3α-HSD Activity [% Inh. at 3 · 10^8M] ([2]; bracketed value, 3 · 10^−6 M)
1 | CCC[C@@H]1CC2C3C=CC4=CC(=O)CC[C@]4(C)C3CC[C@]2(C)C1=O (some centres unmarked) [EM-1097] | 82 |  |  | 
2 | CC1(C)CC[C@@]2(CCC3C4CCc5cc(F)ccc5C4CC[C@@]32C)OC1=O (some centres unmarked) [EM-1157-CS] |  | > 10 | > 10 | 
3 | CC1(C)CCC2(CCC3C4CCc5cc(OS(C)(=O)=O)ccc5C4CCC32C)OC1=O (centres unmarked) [EM-1365-CS] |  | > 10 | > 10 | 
4 | COc1ccc2c(c1)C(=O)CC1C2CC[C@@]2(C)C1CC[C@@]21CCC(C)(C)C(=O)O1 (some centres unmarked) [EM-1394] |  | > 10 | > 10 | 
5 | COCCOc1cc2c(cc1C#N)C1CC[C@@]3(C)C(CC[C@@]34CCC(C)(C)C(=O)O4)C1CC2 (some centres unmarked) [EM-1396] |  | > 10 | > 10 | 
6 | CC1(C)CC[C@@]2(CCC3C4CCc5cc(C(=O)O)ccc5C4CC[C@@]32C)OC1=O (stereo partly drawn) [EM-1401, 3-Carboxy-1,3,5(10)-estratrien-17(R)-spiro-2′-(5′,5′-dimethyl-6′-oxo)tetrahydropyran] |  | > 10 |  | [76] %
7 | COCCOc1cc2c(cc1C(=O)OC)C1CC[C@@]3(C)C(CC[C@@]34CCC(C)(C)C(=O)O4)C1CC2 (stereo partly drawn) [EM-1402-CS, 2-Carbomethoxy-3-(2″-methoxyethyloxy)-1,3,5(10)-estratrien 17(R)-spiro-2′-(5′,5′-dimethyl-6′-oxo)tetrahydropyran] |  | > 10 | > 10 | 
8 | CC1(C)CC[C@@]2(CCC3C4CCc5cc(C(N)=O)ccc5C4CCC32C)OC1=O (some centres unmarked) [EM-1404] |  | > 10 | > 10 | 
9 | COCCOc1cc2c(cc1C(N)=O)C1CC[C@@]3(C)C(CC[C@@]34CCC(C)(C)C(=O)O4)C1CC2 (stereo partly drawn) [EM-1424, 2-Carbamoyl-3-(2″-methoxyethyloxy)-1,3,5(10)-estratrien 17(R)-spiro-2′-(5′,5′-dimethyl-6′-oxo)tetrahydropyran] |  | > 10 | > 10 | 
